ChEMBL document CHEMBL1134133, “Neutral inhibitors of the serine protease factor Xa” (Bioorg Med Chem Lett, 2001)

Assays:
[1] = target: Coagulation factor X (Homo sapiens) (UniProt P00742); test: In vitro inhibition of human coagulation factor X.
[2] = target: Vitamin K-dependent protein C (Homo sapiens) (UniProt P04070); test: Inhibitory activity against Activated protein C at pH 8.2
[3] = target: Coagulation factor X (Homo sapiens) (UniProt P00742); test: Inhibitory activity against serine protease Coagulation factor X at pH 7.4
[4] = target: Coagulation factor X (Homo sapiens) (UniProt P00742); test: Inhibitory activity against serine protease Coagulation factor X at pH 8.2
[5] = target: Tissue-type plasminogen activator (Homo sapiens) (UniProt P00750); test: Inhibitory activity against tissue plasminogen activator (tissue plasminogen activator) at pH 8.2
[6] = target: Serine protease 1 (Homo sapiens) (UniProt P07477); test: Inhibitory activity against trypsin at pH 8.2
[7] = target: Prothrombin (Homo sapiens) (UniProt P00734); test: Inhibitory activity against thrombin at pH 8.2
[8] = target: Urokinase-type plasminogen activator (Homo sapiens) (UniProt P00749); test: Inhibitory activity against urokinase-type plasminogen activator (microPa) at pH 8.2
[9] = target: T1, Coagulation factor VII (Homo sapiens) (UniProt P08709); test: Inhibitory activity against Coagulation factor VII at pH 8.2
T1 sequence (whole entry): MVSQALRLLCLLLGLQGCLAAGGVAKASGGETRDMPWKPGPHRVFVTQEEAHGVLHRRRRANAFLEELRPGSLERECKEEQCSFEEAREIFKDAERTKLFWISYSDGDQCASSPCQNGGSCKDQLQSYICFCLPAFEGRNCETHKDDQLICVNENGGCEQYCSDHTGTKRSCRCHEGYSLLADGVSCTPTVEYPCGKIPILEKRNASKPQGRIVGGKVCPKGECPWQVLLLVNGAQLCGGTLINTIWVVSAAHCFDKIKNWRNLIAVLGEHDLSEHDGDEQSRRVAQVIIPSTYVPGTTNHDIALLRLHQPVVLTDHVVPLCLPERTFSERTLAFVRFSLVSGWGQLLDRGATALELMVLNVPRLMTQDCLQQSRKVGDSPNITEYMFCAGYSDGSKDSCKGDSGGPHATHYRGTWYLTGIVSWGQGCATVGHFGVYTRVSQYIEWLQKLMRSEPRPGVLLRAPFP

[10] = target: Plasminogen (Homo sapiens) (UniProt P00747); test: Inhibitory activity against plasmin at pH 8.2
Chain of Plasminogen (Homo sapiens) (P00747 whole entry, looked up): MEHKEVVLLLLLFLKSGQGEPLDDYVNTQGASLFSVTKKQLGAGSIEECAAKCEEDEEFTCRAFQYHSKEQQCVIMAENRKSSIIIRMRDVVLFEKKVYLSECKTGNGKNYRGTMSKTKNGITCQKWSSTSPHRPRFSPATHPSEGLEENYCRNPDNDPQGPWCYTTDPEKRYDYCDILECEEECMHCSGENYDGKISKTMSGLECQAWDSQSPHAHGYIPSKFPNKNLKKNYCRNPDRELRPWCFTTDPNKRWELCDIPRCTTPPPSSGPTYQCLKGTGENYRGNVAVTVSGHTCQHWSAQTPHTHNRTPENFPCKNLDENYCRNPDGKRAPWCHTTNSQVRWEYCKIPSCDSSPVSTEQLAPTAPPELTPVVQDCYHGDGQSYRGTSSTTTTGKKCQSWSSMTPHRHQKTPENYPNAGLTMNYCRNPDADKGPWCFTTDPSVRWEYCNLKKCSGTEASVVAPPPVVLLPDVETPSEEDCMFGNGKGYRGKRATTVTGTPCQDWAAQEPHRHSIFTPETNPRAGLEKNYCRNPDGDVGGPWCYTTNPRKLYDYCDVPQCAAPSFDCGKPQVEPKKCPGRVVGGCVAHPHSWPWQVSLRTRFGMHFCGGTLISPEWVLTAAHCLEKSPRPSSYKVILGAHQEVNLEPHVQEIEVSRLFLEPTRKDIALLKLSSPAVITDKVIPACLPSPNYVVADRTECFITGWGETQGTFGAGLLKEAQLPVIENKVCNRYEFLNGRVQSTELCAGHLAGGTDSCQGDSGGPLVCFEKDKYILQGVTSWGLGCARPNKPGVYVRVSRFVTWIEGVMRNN

Chain of Coagulation factor X (Homo sapiens) (P00742 41-179 limits assumed): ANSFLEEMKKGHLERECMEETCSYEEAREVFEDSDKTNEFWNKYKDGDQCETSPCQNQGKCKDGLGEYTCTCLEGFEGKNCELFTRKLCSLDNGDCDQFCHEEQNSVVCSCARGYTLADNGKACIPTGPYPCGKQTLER
Chain of Coagulation factor X (Homo sapiens) (P00742 235-488 limits assumed): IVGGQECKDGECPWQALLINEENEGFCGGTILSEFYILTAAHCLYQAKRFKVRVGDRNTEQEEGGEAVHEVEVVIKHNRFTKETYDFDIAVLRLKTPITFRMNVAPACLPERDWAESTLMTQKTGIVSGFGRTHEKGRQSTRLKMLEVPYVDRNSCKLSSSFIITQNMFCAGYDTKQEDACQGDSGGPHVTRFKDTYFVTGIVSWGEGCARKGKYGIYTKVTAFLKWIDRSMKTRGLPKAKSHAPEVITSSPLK
Chain of Serine protease 1 (Homo sapiens) (P07477 whole entry): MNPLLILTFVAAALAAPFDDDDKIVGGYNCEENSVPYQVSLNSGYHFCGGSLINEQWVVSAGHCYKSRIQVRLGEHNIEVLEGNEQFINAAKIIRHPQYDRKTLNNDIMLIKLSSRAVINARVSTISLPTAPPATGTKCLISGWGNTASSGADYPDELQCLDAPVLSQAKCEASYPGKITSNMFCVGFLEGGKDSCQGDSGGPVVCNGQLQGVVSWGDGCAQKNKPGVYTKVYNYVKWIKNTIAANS
Chain of Tissue-type plasminogen activator (Homo sapiens) (P00750 36-562 limits assumed): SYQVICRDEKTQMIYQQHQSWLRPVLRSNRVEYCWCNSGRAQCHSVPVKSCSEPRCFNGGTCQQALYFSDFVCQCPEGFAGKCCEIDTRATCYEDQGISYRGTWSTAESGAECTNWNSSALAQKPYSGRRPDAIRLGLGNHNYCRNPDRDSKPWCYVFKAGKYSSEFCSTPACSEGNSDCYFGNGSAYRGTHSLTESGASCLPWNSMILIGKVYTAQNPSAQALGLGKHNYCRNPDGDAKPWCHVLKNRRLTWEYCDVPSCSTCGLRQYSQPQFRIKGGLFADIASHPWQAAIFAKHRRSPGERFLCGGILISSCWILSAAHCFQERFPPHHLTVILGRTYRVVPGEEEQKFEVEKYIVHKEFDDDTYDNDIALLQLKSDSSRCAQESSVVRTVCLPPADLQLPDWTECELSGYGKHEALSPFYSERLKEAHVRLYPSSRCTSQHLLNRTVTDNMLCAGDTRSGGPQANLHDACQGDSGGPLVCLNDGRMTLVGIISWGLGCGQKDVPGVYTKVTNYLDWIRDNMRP
Chain of Vitamin K-dependent protein C (Homo sapiens) (P04070 43-197 limits assumed): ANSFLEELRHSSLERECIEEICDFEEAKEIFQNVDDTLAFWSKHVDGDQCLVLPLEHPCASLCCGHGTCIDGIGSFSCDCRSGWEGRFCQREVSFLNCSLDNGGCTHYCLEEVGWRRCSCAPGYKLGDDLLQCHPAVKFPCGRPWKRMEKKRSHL
Chain of Vitamin K-dependent protein C (Homo sapiens) (P04070 212-461 limits assumed): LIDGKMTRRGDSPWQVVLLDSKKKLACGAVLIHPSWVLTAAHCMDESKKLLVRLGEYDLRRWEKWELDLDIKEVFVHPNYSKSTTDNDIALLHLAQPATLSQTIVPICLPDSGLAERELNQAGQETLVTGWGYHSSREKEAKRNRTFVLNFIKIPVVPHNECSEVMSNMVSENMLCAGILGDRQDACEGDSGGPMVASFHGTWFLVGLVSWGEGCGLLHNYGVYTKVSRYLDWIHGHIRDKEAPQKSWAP

SMILES	Ki' [1]	further results
Cc1ccc(NC(=O)c2sc3ccccc3c2Cl)c(C(=O)Nc2ccccc2Cl)c1	> 1200 µM	
Cc1ccc(NC(=O)c2cc3cc(O)ccc3s2)c(C(=O)Nc2ccc(F)cc2)c1	3.5 µM	
Cc1ccc(NC(=O)c2sc3ccccc3c2Cl)c(C(=O)Nc2ccncc2)c1	22.1 µM	
Cc1ccc(NC(=O)c2sc3ccccc3c2Cl)c(C(=O)Nc2ccc(O)cc2)c1	97 µM	
Cc1ccc(NC(=O)c2sc3ccccc3c2Cl)c(C(=O)Nc2ccc(N3CCOCC3)cc2)c1	436 µM	
Cc1ccc(NC(=O)c2sc3ccccc3c2Cl)c(C(=O)Nc2ccc3c(c2)OCO3)c1	17.7 µM	
Cc1ccc(NC(=O)c2sc3ccccc3c2Cl)c(C(=O)Nc2ccc(N(C)C)cc2)c1	> 1200 µM	
O=C(Nc1ccccc1C(=O)N1CCOCC1)c1sc2ccccc2c1Cl	> 150 µM	
Cc1ccc(NC(=O)c2cc3ccc(O)cc3s2)c(C(=O)Nc2ccc(F)cc2)c1	10 µM	
Cc1ccc(NC(=O)c2sc3ccccc3c2Cl)c(C(=O)N2CCNCC2)c1	> 1200 µM	
COc1ccc(NC(=O)c2cc(C)ccc2NC(=O)c2sc3ccccc3c2Cl)cc1	2.1 µM	

Continued, in another order:

Ki' [1]	SMILES	further results
> 150 µM	O=C(O)c1ccc(NC(=O)c2ccccc2NC(=O)c2sc3ccccc3c2Cl)cc1	
3.1 µM	O=C(Nc1ccc(F)cc1)c1ccccc1NC(=O)c1sc2ccccc2c1Cl	
0.21 µM	Cc1ccc(NC(=O)c2sc3ccccc3c2Cl)c(C(=O)Nc2ccc(Cl)cc2)c1	
0.57 µM	Cc1ccc(NC(=O)c2sc3ccccc3c2Cl)c(C(=O)Nc2ccc(F)cc2)c1	Ki' [2]: > 150 µM; Ki' [3]: 0.042 µM; Ki' [4]: 2.1 µM; Ki' [5]: > 150 µM; Ki' [6]: > 150 µM; Ki' [7]: 125 µM; Ki' [8]: > 150 µM; Ki' [9]: > 900 µM; Ki' [10]: > 150 µM
> 150 µM	O=C(O)c1cccc(NC(=O)c2ccccc2NC(=O)c2sc3ccccc3c2Cl)c1	
7.8 µM	O=C(Nc1ccccn1)c1ccccc1NC(=O)c1sc2ccccc2c1Cl	
